Reference: publication PMC7156458, “Synthetic biology based construction of biological activity-related library of fungal decalin-containing diterpenoid pyrones” (Nature Communications, 2020)

Molecular target: Aβ42 (Homo sapiens, UniProt P05067)
Assay: Th-T (thioflavin-T) assay of Aβ42 aggregation
Type: biochemical
Conditions: for Th-T assay plate reading, mean of three wells (Supplementary Fig. 47): source data, Ab alone and No Ab as controls

Aβ42, sequence (P05067 672-713): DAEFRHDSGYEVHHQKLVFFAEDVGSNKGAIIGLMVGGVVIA

C=C1CCC2C(C)(CC(=O)C=C(C)C)C(O)CCC2(C)C1Cc1c(O)c(C)c(C)oc1=O (centres unmarked) [Compound 7]
Th-T fluorescence, mean of three wells (Aβ42 aggregation time course, reading M117): 3.444 | Th-T fluorescence, mean of three wells (Aβ42 aggregation time course, reading M118): 3.462 | Th-T fluorescence, mean of three wells (Aβ42 aggregation time course, reading M119): 3.421 | Th-T fluorescence, mean of three wells (Aβ42 aggregation time course, reading M120): 3.485 | Th-T fluorescence, mean of three wells (Aβ42 aggregation time course, reading M121): 3.437 | Th-T fluorescence, mean of three wells (Aβ42 aggregation time course, reading M122): 3.4838 | Th-T fluorescence, mean of three wells (Aβ42 aggregation time course, reading M123): 3.463 | Th-T fluorescence, mean of three wells (Aβ42 aggregation time course, reading M124): 3.451 | Th-T fluorescence, mean of three wells (Aβ42 aggregation time course, reading M125): 3.454 | Th-T fluorescence, mean of three wells (Aβ42 aggregation time course, reading M126): 3.465 | Th-T fluorescence, mean of three wells (Aβ42 aggregation time course, reading M127): 3.446 | Th-T fluorescence, mean of three wells (Aβ42 aggregation time course, reading M128): 3.459 | Th-T fluorescence, mean of three wells (Aβ42 aggregation time course, reading M129): 3.461 | Th-T fluorescence, mean of three wells (Aβ42 aggregation time course, reading M130): 3.435 | Th-T fluorescence, mean of three wells (Aβ42 aggregation time course, reading M131): 3.434 | Th-T fluorescence, mean of three wells (Aβ42 aggregation time course, reading M132): 3.446 | Th-T fluorescence, mean of three wells (Aβ42 aggregation time course, reading M133): 3.459 | Th-T fluorescence, mean of three wells (Aβ42 aggregation time course, reading M134): 3.427 | Th-T fluorescence, mean of three wells (Aβ42 aggregation time course, reading M135): 3.416 | Th-T fluorescence, mean of three wells (Aβ42 aggregation time course, reading M136): 3.414 | Th-T fluorescence, mean of three wells (Supplementary Fig. 47, reading M137): 3.399 | Th-T fluorescence, mean of three wells (Supplementary Fig. 47, reading M138): 3.412 | Th-T fluorescence, mean of three wells (Supplementary Fig. 47, reading M139): 3.411 | Th-T fluorescence, mean of three wells (Supplementary Fig. 47, reading M140): 3.433 | Th-T fluorescence, mean of three wells (Supplementary Fig. 47, reading M141): 3.413 | Th-T fluorescence, mean of three wells (Supplementary Fig. 47, reading M142): 3.437 | Th-T fluorescence, mean of three wells (Supplementary Fig. 47, reading M143): 3.394 | Th-T fluorescence, mean of three wells (Supplementary Fig. 47, reading M144): 3.432 | Th-T fluorescence, mean of three wells (Supplementary Fig. 47, reading M145): 3.431 | Th-T fluorescence, mean of three wells (Supplementary Fig. 47 source data, measurement M37 of time course): 3.548 | Th-T fluorescence, mean of three wells (Supplementary Fig. 47 source data, measurement M38 of time course): 3.519 | Th-T fluorescence, mean of three wells (Supplementary Fig. 47 source data, measurement M39 of time course): 3.507 | Th-T fluorescence, mean of three wells (Supplementary Fig. 47 source data, measurement M40 of time course): 3.528 | Th-T fluorescence, mean of three wells (Supplementary Fig. 47 source data, measurement M41 of time course): 3.5472 | Th-T fluorescence, mean of three wells (Supplementary Fig. 47 source data, measurement M42 of time course): 3.534 | Th-T fluorescence, mean of three wells (Supplementary Fig. 47 source data, measurement M43 of time course): 3.54 | Th-T fluorescence, mean of three wells (Supplementary Fig. 47 source data, measurement M44 of time course): 3.555 | Th-T fluorescence, mean of three wells (Supplementary Fig. 47 source data, measurement M45 of time course): 3.57 | Th-T fluorescence, mean of three wells (Supplementary Fig. 47 source data, measurement M46 of time course): 3.557 | Th-T fluorescence, mean of three wells (Supplementary Fig. 47 source data, measurement M47 of time course): 3.602 | Th-T fluorescence, mean of three wells (Supplementary Fig. 47 source data, measurement M48 of time course): 3.575 | Th-T fluorescence, mean of three wells (Supplementary Fig. 47 source data, measurement M49 of time course): 3.594 | Th-T fluorescence, mean of three wells (Supplementary Fig. 47 source data, measurement M50 of time course): 3.623 | Th-T fluorescence, mean of three wells (Supplementary Fig. 47 source data, measurement M51 of time course): 3.626 | Th-T fluorescence, mean of three wells (Supplementary Fig. 47 source data, measurement M52 of time course): 3.602 | Th-T fluorescence, mean of three wells (Supplementary Fig. 47 source data, measurement M53 of time course): 3.622 | Th-T fluorescence, mean of three wells (Supplementary Fig. 47 source data, measurement M54 of time course): 3.589 | Th-T fluorescence, mean of three wells (Supplementary Fig. 47 source data, measurement M55 of time course): 3.592 | Th-T fluorescence, mean of three wells (Supplementary Fig. 47 source data, measurement M56 of time course): 3.6022 | Th-T assay plate reading, mean of three wells (Supplementary Fig. 47) (measurement M1): 0.291 | Th-T assay plate reading, mean of three wells (Supplementary Fig. 47) (measurement M2): 0.3102 | Th-T assay plate reading, mean of three wells (Supplementary Fig. 47) (measurement M3): 0.3462 | Th-T assay plate reading, mean of three wells (Supplementary Fig. 47) (measurement M4): 0.3847 | Th-T assay plate reading, mean of three wells (Supplementary Fig. 47) (measurement M5): 0.4026 | Th-T assay plate reading, mean of three wells (Supplementary Fig. 47) (measurement M6): 0.4778 | Th-T assay plate reading, mean of three wells (Supplementary Fig. 47) (measurement M7): 0.5127 | Th-T assay plate reading, mean of three wells (Supplementary Fig. 47) (measurement M8): 0.5767 | Th-T assay plate reading, mean of three wells (Supplementary Fig. 47) (measurement M9): 0.6534 | Th-T assay plate reading, mean of three wells (Supplementary Fig. 47) (measurement M10): 0.7067 | Th-T assay plate reading, mean of three wells (Supplementary Fig. 47) (measurement M11): 0.7325 | Th-T assay plate reading, mean of three wells (Supplementary Fig. 47) (measurement M12): 0.7635 | Th-T assay plate reading, mean of three wells (Supplementary Fig. 47) (measurement M13): 0.7892 | Th-T assay plate reading, mean of three wells (Supplementary Fig. 47) (measurement M14): 0.8105 | Th-T assay plate reading, mean of three wells (Supplementary Fig. 47) (measurement M15): 0.8372 | Th-T assay plate reading, mean of three wells (Supplementary Fig. 47) (measurement M16): 0.8682 | Th-T fluorescence, mean of three wells (reading M17, Supplementary Fig. 47 source data): 0.9169 | Th-T fluorescence, mean of three wells (reading M18, Supplementary Fig. 47 source data): 0.9995 | Th-T fluorescence, mean of three wells (reading M19, Supplementary Fig. 47 source data): 1.135 | Th-T fluorescence, mean of three wells (reading M20, Supplementary Fig. 47 source data): 1.37 | Th-T fluorescence, mean of three wells (reading M21, Supplementary Fig. 47 source data): 1.709 | Th-T fluorescence, mean of three wells (reading M22, Supplementary Fig. 47 source data): 2.121 | Th-T fluorescence, mean of three wells (reading M23, Supplementary Fig. 47 source data): 2.518 | Th-T fluorescence, mean of three wells (reading M24, Supplementary Fig. 47 source data): 2.859 | Th-T fluorescence, mean of three wells (reading M25, Supplementary Fig. 47 source data): 3.1034 | Th-T fluorescence, mean of three wells (reading M26, Supplementary Fig. 47 source data): 3.2675 | Th-T fluorescence, mean of three wells (reading M27, Supplementary Fig. 47 source data): 3.339 | Th-T fluorescence, mean of three wells (reading M28, Supplementary Fig. 47 source data): 3.364 | Th-T fluorescence, mean of three wells (reading M29, Supplementary Fig. 47 source data): 3.378 | Th-T fluorescence, mean of three wells (reading M30, Supplementary Fig. 47 source data): 3.446 | Th-T fluorescence, mean of three wells (reading M31, Supplementary Fig. 47 source data): 3.431 | Th-T fluorescence, mean of three wells (reading M32, Supplementary Fig. 47 source data): 3.47 | Th-T fluorescence, mean of three wells (reading M33, Supplementary Fig. 47 source data): 3.448 | Th-T fluorescence, mean of three wells (reading M34, Supplementary Fig. 47 source data): 3.489 | Th-T fluorescence, mean of three wells (reading M35, Supplementary Fig. 47 source data): 3.5187 | Th-T fluorescence, mean of three wells (reading M36, Supplementary Fig. 47 source data): 3.503 | Th-T fluorescence, mean of three wells (time course, reading M57): 3.603 | Th-T fluorescence, mean of three wells (time course, reading M58): 3.607 | Th-T fluorescence, mean of three wells (time course, reading M59): 3.578 | Th-T fluorescence, mean of three wells (time course, reading M60): 3.583 | Th-T fluorescence, mean of three wells (time course, reading M61): 3.605 | Th-T fluorescence, mean of three wells (time course, reading M62): 3.61 | Th-T fluorescence, mean of three wells (time course, reading M63): 3.6015 | Th-T fluorescence, mean of three wells (time course, reading M64): 3.57 | Th-T fluorescence, mean of three wells (time course, reading M65): 3.572 | Th-T fluorescence, mean of three wells (time course, reading M66): 3.5992 | Th-T fluorescence, mean of three wells (time course, reading M67): 3.63 | Th-T fluorescence, mean of three wells (time-course reading M97, Supplementary Fig. 47 source data): 3.5286 | Th-T fluorescence, mean of three wells (time-course reading M98, Supplementary Fig. 47 source data): 3.531 | Th-T fluorescence, mean of three wells (time-course reading M99, Supplementary Fig. 47 source data): 3.498 | Th-T fluorescence, mean of three wells (time-course reading M100, Supplementary Fig. 47 source data): 3.513 | Th-T fluorescence, mean of three wells (time-course reading M101, Supplementary Fig. 47 source data): 3.502 | Th-T fluorescence, mean of three wells (time-course reading M102, Supplementary Fig. 47 source data): 3.488 | Th-T fluorescence, mean of three wells (time-course reading M103, Supplementary Fig. 47 source data): 3.486 | Th-T fluorescence, mean of three wells (time-course reading M104, Supplementary Fig. 47 source data): 3.491 | Th-T fluorescence, mean of three wells (time-course reading M105, Supplementary Fig. 47 source data): 3.477 | Th-T fluorescence, mean of three wells (time-course reading M106, Supplementary Fig. 47 source data): 3.476 | Th-T fluorescence, mean of three wells (time-course reading M107, Supplementary Fig. 47 source data): 3.493 | Th-T fluorescence, mean of three wells (time-course reading M108, Supplementary Fig. 47 source data): 3.51 | Th-T fluorescence, mean of three wells (time-course reading M109, Supplementary Fig. 47 source data): 3.4898 | Th-T fluorescence, mean of three wells (time-course reading M110, Supplementary Fig. 47 source data): 3.516 | Th-T fluorescence, mean of three wells (time-course reading M111, Supplementary Fig. 47 source data): 3.513 | Th-T fluorescence, mean of three wells (time-course reading M112, Supplementary Fig. 47 source data): 3.526 | Th-T fluorescence, mean of three wells (time-course reading M113, Supplementary Fig. 47 source data): 3.459 | Th-T fluorescence, mean of three wells (time-course reading M114, Supplementary Fig. 47 source data): 3.543 | Th-T fluorescence, mean of three wells (time-course reading M115, Supplementary Fig. 47 source data): 3.464 | Th-T fluorescence, mean of three wells (time-course reading M116, Supplementary Fig. 47 source data): 3.458
